Assay results taken from patent publication US20100152429A1, “SODIUM SALT OF DISACCHARIDE COMPOUND, METHOD FOR PRODUCING THE SAME, AND USE OF THE SAME” (Eisai R&D Management Co., Ltd., priority 2006, published 2010).

Test: Storage Safety Test: impurity generation on storage at 25° C., HPLC;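 also: HPLC peak area percentages of three decomposition products, each sample run alongside a methanol-only blank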
Assay type: physicochemical
Conditions: HPLC percentage of area
[1] = 0 days, stored in glass bottles at 25° C.
[2] = 1.0 days, stored at 25° C., listed as 3.67 Na salt
[3] = 1.9 days, stored at 25° C., listed as 3.67 Na salt
[4] = 4.5 days, stored at 25° C., listed as 3.67 Na salt
[5] = 1.0 days, stored at 25° C., listed as 3.93 Na salt
[6] = 1.9 days, stored at 25° C., listed as 3.93 Na salt
[7] = 4.5 days, stored at 25° C., listed as 3.93 Na salt

Method: When HPLC analysis was performed under the conditions shown in Table 1 for each solution and blank solution (methanol only), three types of decomposition product were identified, and the generation ratio (converted to a monthly basis) was calculated for each of the three decomposition products (impurities A, B and C) as a percentage of area.

Question: Which results are given for `CCCCCC/C=C\CCCCCCCCCC(=O)N[C@H]1[C@H](OC[C@H]2O[C@H](OP(=O)([O-])[O-])[C@H](NC(=O)CC(=O)CCCCCCCCCCC)[C@@H](OCCCCCCCCCC)[C@@H]2O)O[C@H](COC)[C@@H](OP(=O)([O-])[O-])[C@@H]1OCC[C@@H](CCCCCCC)OC.[Na+].[Na+].[Na+].[Na+]` [Example 3]?
Answer: Impurity A [1]: 0.00; Impurity C [1]: 0.00; Impurity B (0 days, stored in glass bottles at 25° C., listed as 3.67 Na salt): 0.08; Impurity C (1.0 days, stored at 25° C.): 0.00; Impurity A [2]: 0.00; Impurity B [2]: 0.12; Impurity C (1.9 days, stored at 25° C.): 0.00; Impurity A [3]: 0.01; Impurity B [3]: 0.09; Impurity C (4.5 days, stored at 25° C.): 0.01; Impurity A [4]: 0.01; Impurity B [4]: 0.13; Impurity C (8.8 days, stored at 25° C.): 0.01; Impurity C (29.5 days, stored at 25° C., listed as 3.67 Na salt): 0.07

Question: Which “Impurity A” value [1] does the source give for `CCCCCC/C=C\CCCCCCCCCC(=O)N[C@H]1[C@H](OC[C@H]2O[C@H](OP(=O)(O)O)[C@H](NC(=O)CC(=O)CCCCCCCCCCC)[C@@H](OCCCCCCCCCC)[C@@H]2O)O[C@H](COC)[C@@H](OP(=O)(O)O)[C@@H]1OCC[C@@H](CCCCCCC)OC` [Example 2] here?
Answer: The value was 0.00.

Question: And the “Impurity B” value [1]?
Answer: Its value is 0.00.

Question: And the “Impurity C” value [1]?
Answer: Its value is 0.00.

Question: What about the “Impurity A” value (18 days, stored at 25° C.) of the same compound?
Answer: The value was 0.00.

Question: And the “Impurity B” value (18 days, stored at 25° C.)?
Answer: Its value is 0.00.

Question: What about the “Impurity C” value (18 days, stored at 25° C.) of the same compound?
Answer: Its value is 0.17.

Question: Which results are given for `CCCCCC/C=C\CCCCCCCCCC(=O)N[C@H]1[C@H](OC[C@H]2O[C@H](OP(=O)([O-])[O-])[C@H](NC(=O)CC(=O)CCCCCCCCCCC)[C@@H](OCCCCCCCCCC)[C@@H]2O)O[C@H](COC)[C@@H](OP(=O)([O-])[O-])[C@@H]1OCC[C@@H](CCCCCCC)OC.[Na+].[Na+].[Na+].[Na+]` [Example 4]?
Answer: Impurity B (0 days, stored in glass bottles at 25° C., listed as 3.93 Na salt): 0.14; Impurity A [5]: 0.03; Impurity B [5]: 0.26; Impurity A [6]: 0.04; Impurity B [6]: 0.29; Impurity A [7]: 0.06; Impurity B [7]: 0.38; Impurity C (29.5 days, stored at 25° C., listed as 3.93 Na salt): 0.06

Question: Which results are given for `CCCCCCC=CCCCCCCCCCC(=O)NC1C(OCC2OC(OP(=O)([O-])[O-])C(NC(=O)CC(=O)CCCCCCCCCCC)C(OCCCCCCCCCC)C2O)OC(COC)C(OP(=O)([O-])[O-])C1OCCC(CCCCCCC)OC.[Na+].[Na+].[Na+].[Na+]` (stereo not drawn) [Comparative Example 1, reference compound]?
Answer: Impurity A [1]: 0.00; Impurity B [1]: 0.18; Impurity C [1]: 0.00; Impurity A (1.0 days, stored at 25° C.): 0.06; Impurity B (1.0 days, stored at 25° C.): 0.36; Impurity C (1.0 days, stored at 25° C.): 0.00; Impurity A (1.9 days, stored at 25° C.): 0.08; Impurity B (1.9 days, stored at 25° C.): 0.48; Impurity C (1.9 days, stored at 25° C.): 0.00; Impurity A (4.5 days, stored at 25° C.): 0.12; Impurity B (4.5 days, stored at 25° C.): 0.67; Impurity C (4.5 days, stored at 25° C.): 0.00; Impurity C (8.8 days, stored at 25° C.): 0.00; Impurity C (29.5 days, stored at 25° C.): 0.03
